Results reported in ChEMBL document CHEMBL1131038, “Derivatives of the triazoloquinazoline adenosine antagonist (CGS 15943) having high potency at the human A2B and A3 receptor subtypes” (J Med Chem, 1998).

How the values were obtained:
[1] = molecular target: Adenosine receptor A2a (Rattus norvegicus, UniProt P30543); test: Binding affinity was determined in radioligand binding assay at rat striatal Adenosine A2A receptor vs [3H]-CGS- 21680
[2] = Ratio against rat A2A receptor and Human A3 receptor
[3] = Ratio against rat A1 receptor and Human A3 receptor
[4] = molecular target: T1, Adenosine receptor A1 (Rattus norvegicus, UniProt P25099)
T1 sequence (P25099 whole entry): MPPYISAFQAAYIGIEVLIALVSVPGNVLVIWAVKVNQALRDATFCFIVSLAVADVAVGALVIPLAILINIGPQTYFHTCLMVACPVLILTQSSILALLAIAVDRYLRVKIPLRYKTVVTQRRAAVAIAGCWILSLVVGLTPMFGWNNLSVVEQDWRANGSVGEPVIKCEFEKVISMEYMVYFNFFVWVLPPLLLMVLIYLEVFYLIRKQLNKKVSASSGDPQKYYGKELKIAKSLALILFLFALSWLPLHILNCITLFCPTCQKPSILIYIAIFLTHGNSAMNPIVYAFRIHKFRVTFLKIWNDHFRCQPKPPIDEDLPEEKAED
Description: Binding affinity was determined in radioligand binding assay at rat brain adenosine A1 receptor vs [3H]R-PIA

[5] = molecular target: T2, Adenosine receptor A3 (Homo sapiens, UniProt P0DMS8); test: biochemical
T2 sequence (P0DMS8 whole entry): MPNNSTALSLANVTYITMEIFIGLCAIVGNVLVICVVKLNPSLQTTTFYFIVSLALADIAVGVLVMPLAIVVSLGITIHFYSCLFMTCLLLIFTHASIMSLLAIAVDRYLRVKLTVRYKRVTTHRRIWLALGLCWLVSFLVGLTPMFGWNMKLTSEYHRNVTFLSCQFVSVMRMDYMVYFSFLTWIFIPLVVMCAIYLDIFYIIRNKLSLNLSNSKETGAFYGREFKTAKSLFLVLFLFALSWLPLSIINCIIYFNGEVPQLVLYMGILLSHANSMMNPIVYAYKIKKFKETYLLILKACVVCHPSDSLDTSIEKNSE
Description: Binding affinity at cloned human adenosine A3 receptor expressed in HEK293 cells was determined using [125I]AB-MECA as radioligand

[6] = molecular target: T3, Adenosine receptor A2b (Homo sapiens) (UniProt P29275); test: Inhibition at 50 uM on cAMP production induced by 50 uM 5`-(N-ethylcarboxamido)adenosine in CHO cell line transfected with human Adenosine A2B receptor cDNA; format: cell-based
T3 sequence (whole entry): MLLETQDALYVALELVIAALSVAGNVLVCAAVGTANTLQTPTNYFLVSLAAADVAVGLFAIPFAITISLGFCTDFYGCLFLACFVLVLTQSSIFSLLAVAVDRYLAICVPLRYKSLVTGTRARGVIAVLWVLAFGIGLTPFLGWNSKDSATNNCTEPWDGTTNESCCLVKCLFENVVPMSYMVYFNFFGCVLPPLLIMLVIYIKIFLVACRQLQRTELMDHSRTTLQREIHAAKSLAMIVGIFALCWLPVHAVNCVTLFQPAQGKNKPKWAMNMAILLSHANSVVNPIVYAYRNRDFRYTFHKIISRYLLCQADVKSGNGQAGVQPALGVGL

[7] = molecular target: T4, Adenosine receptor A2b (Homo sapiens, UniProt P29275); test: Inhibition of 50 uM 5`-(N-ethylcarboxamido)adenosine induced cAMP production in CHO cell line expressing human Adenosine A2B receptor; format: cell-based
T4 sequence (P29275 whole entry): T3 sequence (whole entry)

Sequence of Adenosine receptor A2a (P30543 whole entry): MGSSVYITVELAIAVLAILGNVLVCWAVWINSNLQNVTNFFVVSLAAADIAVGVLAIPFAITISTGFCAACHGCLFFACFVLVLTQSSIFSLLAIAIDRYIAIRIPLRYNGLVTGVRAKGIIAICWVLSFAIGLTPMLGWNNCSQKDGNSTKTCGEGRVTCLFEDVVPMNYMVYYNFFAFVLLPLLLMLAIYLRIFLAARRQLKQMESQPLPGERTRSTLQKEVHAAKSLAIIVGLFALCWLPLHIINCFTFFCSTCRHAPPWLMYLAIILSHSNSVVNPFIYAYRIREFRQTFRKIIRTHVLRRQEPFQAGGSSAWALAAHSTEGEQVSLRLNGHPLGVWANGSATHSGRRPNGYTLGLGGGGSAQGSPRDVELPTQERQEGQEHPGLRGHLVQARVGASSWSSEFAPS

SMILES	Ki [1]	Selectivity ratio [2]	Selectivity ratio [3]	Ki [4]	Ki [5]	inhibition [6]	IC50 [7]
C[C@H](N)C(=O)Nc1nc2ccc(Cl)cc2c2nc(-c3ccco3)nn12	143 nM	0.12	0.33	390 nM	1200 nM		
O=C(CCCCC(=O)OCc1ccccc1)Nc1nc2ccc(Cl)cc2c2nc(-c3ccco3)nn12	16.7 nM	0.37	6.8	304 nM	44.7 nM		
NCCCCCC(=O)Nc1nc2ccc(Cl)cc2c2nc(-c3ccco3)nn12	10.3 nM	0.048	0.47	99.6 nM	213 nM	79%	
Nc1ccc(CC(=O)Nc2nc3ccc(Cl)cc3c3nc(-c4ccco4)nn23)cc1I	10.4 nM	0.21	4.4	217 nM	49.3 nM	23%	
NCCCCCCC(=O)Nc1nc2ccc(Cl)cc2c2nc(-c3ccco3)nn12	55.9 nM	0.16	0.33	114 nM	346 nM	75%	
CC(C)(C)OC(=O)NCCCCCC(=O)Nc1nc2ccc(Cl)cc2c2nc(-c3ccco3)nn12	33.7 nM	1	1.6	53.8 nM	33.8 nM		
O=C(Cc1cccc(Cl)c1)Nc1nc2ccc(Cl)cc2c2nc(-c3ccco3)nn12	9.43 nM	0.29	1.3	43 nM	32.1 nM	45%	
CCCC(=O)Nc1nc2ccc(Cl)cc2c2nc(-c3ccco3)nn12						66%	
O=C(Nc1nc2ccc(Cl)cc2c2nc(-c3ccc(Br)o3)nn12)c1ccccc1						0%	
O=C(Cc1ccccc1)Nc1nc2ccc(Cl)cc2c2nc(-c3ccco3)nn12	10.3 nM			52.7 nM		71%	
COc1ccc(CC(=O)Nc2nc3ccc(Cl)cc3c3nc(-c4ccco4)nn23)cc1	28 nM	1.9	2.1	30.2 nM	14.4 nM		
CCC(=O)Nc1nc2ccc(Cl)cc2c2nc(-c3ccco3)nn12						66%	
O=C(Cc1cccc(I)c1)Nc1nc2ccc(Cl)cc2c2nc(-c3ccco3)nn12	9.67 nM	0.011	0.051	45.4 nM	882 nM		
CCCCC(=O)Nc1nc2ccc(Cl)cc2c2nc(-c3ccco3)nn12						79%	
COC(=O)CCC(=O)Nc1nc2ccc(Cl)cc2c2nc(-c3ccco3)nn12	28.8 nM	0.52	1.3	71.8 nM	55.1 nM		
CC(C)(C)C(=O)Nc1nc2ccc(Cl)cc2c2nc(-c3ccco3)nn12						89%	2400 nM
O=C(CCc1ccccc1)Nc1nc2ccc(Cl)cc2c2nc(-c3ccco3)nn12					23.6 nM	43%	
CCCn1c(=O)n2nc(-c3ccco3)nc2c2cc(Cl)ccc21						0%	
CC(C)(C)OC(=O)NCCCCCCC(=O)Nc1nc2ccc(Cl)cc2c2nc(-c3ccco3)nn12	11.1 nM	0.21	0.71	38.2 nM	53.7 nM		
CC(C)(C)OC(=O)NCCCC(=O)Nc1nc2ccc(Cl)cc2c2nc(-c3ccco3)nn12	19.9 nM	0.6	1.4	45.9 nM		47%	
C[C@@H](C(=O)Nc1nc2ccc(Cl)cc2c2nc(-c3ccco3)nn12)c1ccccc1	20.1 nM			37.5 nM	0.468 nM		
CC(NC(=O)OC(C)(C)C)C(=O)Nc1nc2ccc(Cl)cc2c2nc(-c3ccco3)nn12 (stereo unspecified)	6.65 nM	0.08	0.66	54.7 nM	82.9 nM		
Nc1nc2ccc(Cl)cc2c2nc(-c3ccco3)nn12 [CGS-15943]	3.3 nM					100%	

SMILES	Ki [1]	Selectivity ratio [2]	Selectivity ratio [3]	Ki [4]	Ki [5]	inhibition [6]	IC50 [7]
C[C@@H](N)C(=O)Nc1nc2ccc(Cl)cc2c2nc(-c3ccco3)nn12	29.7 nM	0.026	0.17	193 nM	1140 nM		
CC(C)(C)OC(=O)NCCCCC(=O)Nc1nc2ccc(Cl)cc2c2nc(-c3ccco3)nn12	3.64 nM	0.17	1.4	30.1 nM	22 nM		
CCO/C(O)=C1\C(C)=NC(c2ccccc2)=C(C(=O)OCc2ccccc2)C1C#Cc1ccccc1 (stereo unspecified)	> 100 nM						
Nc1nc2ccc(Cl)cc2c2nc(-c3ccc(Br)o3)nn12						16%	
O=C(Nc1nc2ccc(Cl)cc2c2nc(-c3ccco3)nn12)C(c1ccccc1)c1ccccc1	12.1 nM	21	220	129 nM	0.586 nM		
Oc1nc2ccc(Cl)cc2c2nc(-c3ccco3)nn12						0%	
O=C(Nc1nc2ccc(Cl)cc2c2nc(-c3ccco3)nn12)c1cccc(I)c1						38%	
O=C(Cc1ccccc1I)Nc1nc2ccc(Cl)cc2c2nc(-c3ccco3)nn12	17.2 nM	< 1	< 1	2300 nM	> 10000 nM		
Clc1ccc2nc(NCc3ccccc3)n3nc(-c4ccco4)nc3c2c1	200 nM	4.7	28		42.5 nM	21%	
O=C(/C=C/c1ccccc1)Nc1nc2ccc(Cl)cc2c2nc(-c3ccco3)nn12	59.8 nM	0.71	3.9	282 nM	72.1 nM	38%	
C[C@@H](NC(=O)OC(C)(C)C)C(=O)Nc1nc2ccc(Cl)cc2c2nc(-c3ccco3)nn12	18.8 nM	0.41	1	48.6 nM	46.3 nM		
Nc1ccc(CC(=O)Nc2nc3ccc(Cl)cc3c3nc(-c4ccco4)nn23)cc1					3.56 nM	90%	7400 nM
O=C(Cc1ccc(I)cc1)Nc1nc2ccc(Cl)cc2c2nc(-c3ccco3)nn12	9.93 nM	0.16	0.22	13.8 nM	62.9 nM	42%	
CCO/C(O)=C1\C(C)=NC(c2ccccc2)=C(C(=O)OCc2ccc([N+](=O)[O-])cc2)C1C#Cc1ccccc1 (stereo unspecified)	> 100 nM			> 100 nM			
NCCC(=O)Nc1nc2ccc(Cl)cc2c2nc(-c3ccco3)nn12	7.58 nM	0.0088	0.1	89.8 nM	874 nM	83%	13300 nM
CC(C)(C)OC(=O)Nc1nc2ccc(Cl)cc2c2nc(-c3ccco3)nn12						92%	2410 nM
CC(C)(C)OC(=O)NCCC(=O)Nc1nc2ccc(Cl)cc2c2nc(-c3ccco3)nn12	7.58 nM	1.1	4.6	31 nM	6.71 nM		
NCCCCC(=O)Nc1nc2ccc(Cl)cc2c2nc(-c3ccco3)nn12	1.13 nM	0.02	0.12	6.99 nM	57.9 nM	100%	1770 nM
O=C(Nc1nc2ccc(Cl)cc2c2nc(-c3ccco3)nn12)c1ccccc1						58%	
C[C@H](C(=O)Nc1nc2ccc(Cl)cc2c2nc(-c3ccco3)nn12)c1ccccc1	11.1 nM	31	130	46.2 nM	0.362 nM		
CC(C(=O)Nc1nc2ccc(Cl)cc2c2nc(-c3ccco3)nn12)(c1ccccc1)c1ccccc1	453 nM	2.3	4.6	890 nM	194 nM		
COC(=O)CCCCCCC(=O)Nc1nc2ccc(Cl)cc2c2nc(-c3ccco3)nn12	7.43 nM	0.13	0.79	46.6 nM	59 nM		
CC(=O)Nc1nc2ccc(Cl)cc2c2nc(-c3ccco3)nn12						92%	2650 nM
